In patent publication US6204384A, “Substituted 3-amino-2-hydroxyphenylacetamide derivatives as enzyme inhibitors (II)” (Corvas International, Inc., priority 1997, dated 2001):

Experiments:
[1] = literature; cited from earlier work
[2] = literature; cited from earlier work; remark: listed apart in the source
[3] = tested on: trypsin, plasmin and kallikrein; settings: literature, inhibiting trypsin; cited from earlier work
[4] = tested on: thrombotic occlusion of the carotid artery; experiment: Rat model of FeCl3-induced platelet-dependent arterial thrombosis; type: in vivo; settings: dose that prevents complete thrombotic occlusion in 50% of animals tested, read-out: ED50 for thrombus prevention in the FeCl3 model of arterial thrombosis
Method: The antithrombotic (prevention of thrombus formation) properties of compounds of the present invention are evaluated using the following established experimental model of acute vascular thrombosis which is a rat model of FeCl3 -induced platelet-dependent arterial thrombosis.
This is a well characterized model of platelet dependent, arterial thrombosis which has been used in the evaluation potential antithrombotic compounds such as direct thrombin inhibitors. See, Kurz, K. D., Main, B. W., and Sandusky, G. E., Thromb. Res., 60: 269-280 (1990). In this model a platelet-rich, occlusive thrombus is formed in a segment of the rat carotid artery treated locally with a fresh solution of FeCl3 absorbed to a piece of filter paper. […] The effect of a test compound on the incidence of occlusive thrombus formation following the application of the […] is monitored by ultrasonic flowtometry and is used as the primary end point. […]
Following surgery the animals are randomized in either a control (saline) or treatment group with test compound, with at least 6 animals per group per dose. […] Blood pressure, blood flow, heart rate, and respiration are monitored for 60 minutes.
The incidence of occlusion (defined as the attainment of zero blood flow) is recorded as the primary end point. […]

Row | SMILES | toxicity, in words [1] | pharmacokinetics, in words [2] | selectivity, in words [3] | ED50 [4] [mg/kg]
1 | N=C(N)c1ccc(CC(=O)C(=O)O)cc1 [APPA, 4-amidinophenylpyruvic acid] | low toxicity | favourable pharmacokinetics | non-selective, inhibiting trypsin, plasmin and kallikrein | –
2 | CC1CNc2c(cccc2S(=O)(=O)N[C@@H](CCCNC(=N)N)C(=O)N2CC[C@@H](C)C[C@@H]2C(=O)O)C1 (stereo partly drawn) [Argatroban, 2R,4R-4-methyl-1-[N-2-(3-methyl-1,2,3,4-tetrahydro-8-quinolinesulfonyl)-L-argininy]-2-piperdinecarboxylic acid] | – | – | – | 3.8
